Key:
urine 5-HIAA/24 hours = experiment: Part 2 MAD biomarker: urine 5-HIAA/24 hours change from Day 1; format: in vivo, human
Description: Biomarkers were to be evaluated in Part 2 by measuring concentrations of serotonin (5-hydroxytryptamine [5-HT]) in serum and 5-hydroxyindoleacetic acid (5-HIAA) in plasma and urine. As well, the relationship of biomarkers to PK parameters was to be evaluated.
The biomarker analysis was to be based on the Biomarker Population (all subjects with evaluable biomarker measurements at baseline [Day 1 predose] and at least one after dosing [Day 7 or Day 14]).
Biomarker data were to be collected only in Part 2. The following biomarkers were to be analyzed: • Serum 5-HT • Plasma 5-HIAA • Urine 5-HIAA/24 hours (as measured, adjusted, estimated, and per gram creatinine)
Linear regression was to be performed using biomarker changes, absolute and relative (%), from Day 1, at predose on Day 7 or Day 14 versus AUC0-24, Cmax, and Cmin in corresponding study days. The slopes and corresponding 95% confidence intervals (CIs) were to be tabulated. […]
The biomarker portion of the study was conducted in Part 2 MAD using the Biomarker Population. The biomarkers evaluated were serum 5-HT and plasma 5-HIAA, as well as urine 5-HIAA/24 hours (as measured, adjusted, estimated, and per gram creatinine). Urinary 5-HIAA was determined by a validated (21 C.F.R. 58, GLP-compliant) method using liquid chromatographic separation and tandem mass spectrometry detection. […]
Biomarker data were analyzed for each KAR5585 dose separately, for all KAR5585 doses pooled, and for all placebo subjects pooled.
Urine 5 HIAA/24 hour was analyzed in 4 different manners: as measured in the 24-hour collection and (in order to correct for any collection errors) adjusted for creatinine excretion, estimated by the expected creatinine excretion for the subject (as defined in and expressed per gram creatinine. Results were similar for each of the 4 manners and are presented in this report for measured urine. Tables and figures for adjusted, estimated, and per-gram creatinine results are presented in Section 14. […]

[1] = Part 1 SAD plasma pharmacokinetics of KAR5585 and KAR5417 after a single oral dose of KAR5585 (fasting; fed food effect); details: for AUC0-inf Geometric Mean / AUC0-tau Geometric Mean / Cmax Geometric Mean: 400 mg KAR5585 single oral dose
Procedure: Food effect was to be evaluated in Part 1, Period 2. Part 2 was permitted to begin before Part 1 was completed and, in each part, the data from each dose Cohort were to be reviewed for safety before the next dose Cohort was enrolled.
Part 1 had 6 Cohorts of 12 subjects each (for a total of 72 subjects) and Part 2 had 4 Cohorts of 12 subjects each (for a total of 48 subjects). In Part 1, the 12 subjects in Cohort 3 (400 mg) were studied twice, once under fasting conditions (Period 1) and once under fed conditions (Period 2) for food-effect assessment.
Pharmacokinetic data were to be summarized descriptively.

[2] = Part 1 SAD urine pharmacokinetics (urinary excretion, renal clearance); format: in vivo, human
Procedure: Renal clearance of KAR5417 was calculated from the area under the plasma time concentration curve (AUC0-96) for KAR5417 and the amount of KAR5417 recovered in urine (Table 21).

[3] = 100 mg to 700 mg single dose, 7-fold increase in dose
[4] = 700 mg to 2000 mg single dose, 2.86-fold increase in dose
[5] = arithmetic mean, plasma KAR5417 after single oral 100 mg KAR5585, fasted, Cohort 1
[6] = arithmetic mean, plasma KAR5417 after single oral 700 mg KAR5585, fasted, Cohort 4
[7] = arithmetic mean, plasma KAR5417 after single oral 1200 mg KAR5585, fasted, Cohort 5
[8] = geometric mean, plasma KAR5417 after single oral 200 mg KAR5585, fasted, Cohort 2
[9] = geometric mean, plasma KAR5417 after single oral 400 mg KAR5585, fed, Cohort 3B
[10] = geometric mean, plasma KAR5417 after single oral 1200 mg KAR5585, fasted, Cohort 5
[11] = geometric mean, plasma KAR5417 after single oral 2000 mg KAR5585, fasted, Cohort 6
[12] = KAR5585 700 mg single oral dose

## Nc1nc(O[C@H](c2ccc(Cl)cc2-c2ccccc2)C(F)(F)F)cc(N2CCC3(CC2)CN[C@H](C(=O)O)C3)n1 [KAR5417, (S)-8-(2-amino-6-((R)-1-(5-chloro-[1,1′-biphenyl]-2-yl)-2,2,2-trifluoroeth-oxy)pyrimidin-4-yl)-2,8-diazaspiro[4.5]decane-3-carboxylic acid]
Urine 5-HIAA/24 hours; Day 7
  correlation of change from baseline in measured urine 5-HIAA with AUC0-24, Cmax, C12 or AUC0-12: no significant correlations
Urine 5-HIAA/24 hours; Day 14
  correlation of change from baseline in measured urine 5-HIAA with AUC0-24, Cmax, C12 or AUC0-12: significantly correlated
[1]; 100 mg (Cohort 1) to 700 mg (Cohort 4), 7-fold increase in dose
  increase in mean Cmax: 7.27 fold
[1]; [3]
  increase in mean AUC0-24: 6.3 fold
  increase in mean AUC0-inf: 6.8 fold
[1]; 400 mg KAR5585 single dose
  exposure (AUC0-tau and AUC0-inf) under fed relative to fasting conditions: approximately 2 fold
  increase in Cmax, fed relative to fasting: 1.8 fold
  increase in mean AUC0-inf, fed relative to fasting: 1.8 fold
  peak exposure (Cmax) higher under fed relative to fasting conditions: approximately 1.87 fold
  peak mean concentrations higher under fed relative to fasting conditions: approximately 177%
[1]; 400 mg KAR5585 single dose, fasted
  tmax: 4 hour postdose
[1]; 700 mg (Cohort 4) to 2000 mg (Cohort 6), 2.86-fold increase in dose
  increase in mean Cmax: 1.38 fold
[1]; [4]
  increase in AUC0-24: 1.7 fold
  increase in AUC0-inf: 1.81 fold
[1]; Cohort 3A (Fasting)
  AUC0-inf Geometric Mean: 3280 ng·h/mL
  AUC0-tau Geometric Mean: 3120 ng·h/mL
  Cmax Geometric Mean: 444 ng/mL
[1]; Cohort 3B (Fed) versus Cohort 3A (Fasting), 400 mg KAR5585
  Cmax Geometric LS Mean Ratio: 1.87
[1]; Cohort 3B (Fed)
  AUC0-inf Geometric Mean: 6630 ng·h/mL
  AUC0-tau Geometric Mean: 6360 ng·h/mL
  Cmax Geometric Mean: 831 ng/mL
[1]; Part 1 SAD
  time by which all subjects had measurable concentrations: ≤ 0.25 hours postdose
[1]; Part 1 SAD, fasting
  plasma concentrations relative to plasma concentrations of KAR5585: approximately 10 fold
[1]; [5]
  AUC0-12: 704 ng·h/mL
  AUC0-∞: 886 ng·h/mL
  t1/2: 4.67 h
[1]; [6]
  AUC0-12: 4350 ng·h/mL
  AUC0-24: 5310 ng·h/mL
[1]; [7]
  AUC0-12: 5350 ng·h/mL
  Cmax: 896 ng/mL
[1]; arithmetic mean, plasma KAR5417 after single oral 2000 mg KAR5585, fasted, Cohort 6
  AUC0-12: 6910 ng·h/mL
[1]; [8]
  AUC0-24: 940 ng·h/mL
  t1/2: 5.29 h
[1]; [9]
  AUC0-12: 4170 ng·h/mL
  AUC0-24: 5370 ng·h/mL
  AUC0-tau: 6360 ng·h/mL
  AUC0-∞: 6630 ng·h/mL
  Cmax: 831 ng/mL
  t1/2: 19.8 h
[1]; geometric mean, plasma KAR5417 after single oral 700 mg KAR5585, fasted, Cohort 4
  AUC0-12: 3050 ng·h/mL
[1]; [10]
  AUC0-tau: 6580 ng·h/mL
  AUC0-∞: 6880 ng·h/mL
  Cmax: 764 ng/mL
  t1/2: 14.0 h
[1]; [11]
  AUC0-12: 6550 ng·h/mL
  Cmax: 1030 ng/mL
  t1/2: 22.1 h
[1]; median, plasma KAR5417 after single oral 100 mg KAR5585, fasted, Cohort 1
  tmax: 4.00 h
[1]; median, plasma KAR5417 after single oral 400 mg KAR5585, fed, Cohort 3B
  tmax: 4.00 h
[1]; median, plasma KAR5417 after single oral 700 mg KAR5585, fasted, Cohort 4
  tmax: 4.00 h
[1]; single 100 mg KAR5585, fasting
  time up to which concentrations remained above the LLOQ: up to 12 hours
[1]; single 100 mg dose of KAR5585
  mean apparent terminal (elimination) half-life: 4.67 h
[1]; single 200 mg KAR5585, fasting
  time up to which concentrations remained above the LLOQ: ≤ 24 h
[1]; single 400 mg KAR5585, fasting
  time up to which concentrations remained above the LLOQ: ≤ 36 h
[1]; single 700 mg KAR5585, fasting
  time up to which concentrations remained above the LLOQ: ≤ 48 h
[1]; single 1200 mg KAR5585, fasting
  time up to which concentrations remained above the LLOQ: ≤ 48 h
[1]; single 2000 mg KAR5585, fasting
  time up to which concentrations remained above the LLOQ: ≤ 72 h
[1]; single dose 400 mg KAR5585, Part 1 Cohort 3B
  elimination half-life: 20.5 h
[2]; 400 mg fed Cohort (Cohort 3B)
  highest amount excreted in urine, of the dose: 0.331%
[2]; KAR5585 100 mg single oral dose
  Plasma AUC0-96 Mean: 889 ng·h/mL
[2]; KAR5585 400 mg single oral dose, fasted
  Plasma AUC0-96 Mean: 3630 ng·h/mL
[2]; KAR5585 400 mg single oral dose, fed
  Plasma AUC0-96 Mean: 6590 ng·h/mL
[2]; [12]
  CLR Mean: 191 mL/h
  Plasma AUC0-96 Mean: 5990 ng·h/mL
[2]; KAR5585 1200 mg single oral dose
  CLR Mean: 157 mL/h
